Reference: patent US6914045B2, “Glycopeptide antibiotics” (Wyeth Holdings Corporation, priority 2001, dated 2005)
Converted amounts (≈) assume the structure as drawn.

Key:
Test in all cases: in vitro antibacterial evaluation, MIC by broth dilution
Assay type in all cases: cell-based
Streptococcus sp. = conditions: broth dilution, 18 hours at 35° C.
Method in brief: (§1)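 Read-out: the lowest concentration at which the test strain fails to grow. Serial dilutions (64-0.06 μg/mL) in Muller-Hinton II […], 5×10^5 CFU/mL inoculum, NCCLS M7-A2 procedure.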

Enterococcus sp. = conditions: broth dilution, 18 hours at 35° C.
Method in brief: as §1

Staphylococcus sp. = conditions: broth dilution, 18 hours at 35° C.
Method in brief: as §1

Escherichia coli = conditions: 18 hours at 35° C.

SMILES: Cc1ccc(COCC2OC(OC3C(CO)OC(Oc4ccc(CC5NC(=O)C(C(C)c6ccccc6)NC(=O)CNC(=O)C(CO)NC(=O)C(C(O)C6CNC(=N)N6C6OC(CO)C(O)C(O)C6O)NC(=O)C(C(O)C6CNC(=N)N6)NC5=O)cc4)C(O)C3O)C(O)C(O)C2O)cc1 (stereo not shown) [Example 234]
- MIC Streptococcus agalactiae (GC 4564) (Streptococcus sp.): 0.5 µg/mL (≈ 0.357 µM)
- MIC Streptococcus pneumoniae (ATCC 6301) (Streptococcus sp.): 0.25 µg/mL (≈ 0.179 µM)
- MIC Streptococcus pneumoniae (GC 1894) (Streptococcus sp.): 0.12 µg/mL (≈ 0.0857 µM)
- MIC Streptococcus pneumoniae (GC 4565) (Streptococcus sp.): 0.25 µg/mL (≈ 0.179 µM)
- MIC Streptococcus pyogenes (GC 4563) (Streptococcus sp.): 0.5 µg/mL (≈ 0.357 µM)
- MIC Streptococcus pneumoniae (ATCC 6301) (Streptococcus sp.; inoculum 5×10^5 CFU/mL, strain ATCC 6301): 0.25 µg/mL (≈ 0.179 µM)
- MIC Streptococcus pneumoniae (GC 1894) (Streptococcus sp.; inoculum 5×10^5 CFU/mL, strain GC 1894): 0.12 µg/mL (≈ 0.0857 µM)
- MIC Streptococcus pyogenes (GC 4563) (Streptococcus sp.; inoculum 5×10^5 CFU/mL, strain GC 4563): 0.5 µg/mL (≈ 0.357 µM)
- MIC Streptococcus agalactiae (GC 4564) (Streptococcus sp.; inoculum 5×10^5 CFU/mL, strain GC 4564): 0.5 µg/mL (≈ 0.357 µM)
- MIC Streptococcus pneumoniae (GC 4565) (Streptococcus sp.; inoculum 5×10^5 CFU/mL, strain GC 4565): 0.25 µg/mL (≈ 0.179 µM)
- MIC Enterococcus avium (GC 4558) (Enterococcus sp.): 8 µg/mL (≈ 5.72 µM)
- MIC Enterococcus faecalis (ATCC 29212) (Enterococcus sp.): 8 µg/mL (≈ 5.72 µM)
- MIC Enterococcus faecalis (GC 2242) (Enterococcus sp.): 4 µg/mL (≈ 2.86 µM)
- MIC Enterococcus faecalis (GC 2691) (Enterococcus sp.): 8 µg/mL (≈ 5.72 µM)
- MIC Enterococcus faecalis (GC 3059) (Enterococcus sp.): 8 µg/mL (≈ 5.72 µM)
- MIC Enterococcus faecalis (GC 4552) (Enterococcus sp.): 8 µg/mL (≈ 5.72 µM)
- MIC Enterococcus faecalis (GC 4553) (Enterococcus sp.): 8 µg/mL (≈ 5.72 µM)
- MIC Enterococcus faecalis (GC 4554) (Enterococcus sp.): 8 µg/mL (≈ 5.72 µM)
- MIC Enterococcus faecalis (GC 6189) (Enterococcus sp.): 8 µg/mL (≈ 5.72 µM)
- MIC Enterococcus faecium (GC 2243) (Enterococcus sp.): 8 µg/mL (≈ 5.72 µM)
- MIC Enterococcus faecium (GC 4556) (Enterococcus sp.): 8 µg/mL (≈ 5.72 µM)
- MIC Enterococcus faecium (GC 4557) (Enterococcus sp.): 2 µg/mL (≈ 1.43 µM)
- MIC Enterococcus faecalis (ATCC 29212) (Enterococcus sp.; strain ATCC 29212): 8 µg/mL (≈ 5.72 µM)
- MIC Enterococcus faecium (GC 2243) (Enterococcus sp.; strain GC 2243): 8 µg/mL (≈ 5.72 µM)
- MIC Enterococcus faecalis (GC 4552) (Enterococcus sp.; strain GC 4552): 8 µg/mL (≈ 5.72 µM)
- MIC Enterococcus faecalis (GC 4553) (Enterococcus sp.; strain GC 4553): 8 µg/mL (≈ 5.72 µM)
- MIC Enterococcus faecalis (GC 4554) (Enterococcus sp.; strain GC 4554): 8 µg/mL (≈ 5.72 µM)
- MIC Enterococcus faecium (GC 4556) (Enterococcus sp.; strain GC 4556): 8 µg/mL (≈ 5.72 µM)
- MIC Enterococcus faecium (GC 4557) (Enterococcus sp.; strain GC 4557): 2 µg/mL (≈ 1.43 µM)
- MIC Enterococcus avium (GC 4558) (Enterococcus sp.; strain GC 4558): 8 µg/mL (≈ 5.72 µM)
- MIC Enterococcus faecalis (GC 6189) (Enterococcus sp.; strain GC 6189): 8 µg/mL (≈ 5.72 µM)
- MIC Enterococcus faecalis (GC 2242) (Enterococcus sp.; inoculum 5×10^5 CFU/mL, strain GC 2242): 4 µg/mL (≈ 2.86 µM)
- MIC Enterococcus faecalis (GC 2691) (Enterococcus sp.; inoculum 5×10^5 CFU/mL, strain GC 2691): 8 µg/mL (≈ 5.72 µM)
- MIC Enterococcus faecalis (GC 3059) (Enterococcus sp.; inoculum 5×10^5 CFU/mL, strain GC 3059): 8 µg/mL (≈ 5.72 µM)
- MIC Coagulase Negative Staphylococcus (GC 4547) (Staphylococcus sp.): 1 µg/mL (≈ 0.715 µM)
- MIC Coagulase Negative Staphylococcus (GC 4548) (Staphylococcus sp.): 1 µg/mL (≈ 0.715 µM)
- MIC Coagulase Negative Staphylococcus (GC 4549) (Staphylococcus sp.): 0.5 µg/mL (≈ 0.357 µM)
- MIC Coagulase Negative Staphylococcus (GC 4551) (Staphylococcus sp.): 2 µg/mL (≈ 1.43 µM)
- MIC Coagulase Negative Staphylococcus (GC 6257) (Staphylococcus sp.): 1 µg/mL (≈ 0.715 µM)
- MIC Staphylococcus aureus (ATCC 29213) (Staphylococcus sp.): 2 µg/mL (≈ 1.43 µM)
- MIC Staphylococcus aureus (GC 1131) (Staphylococcus sp.): 2 µg/mL (≈ 1.43 µM)
- MIC Staphylococcus aureus (GC 3051) (Staphylococcus sp.): 2 µg/mL (≈ 1.43 µM)
- MIC Staphylococcus aureus (GC 3053) (Staphylococcus sp.): 2 µg/mL (≈ 1.43 µM)
- MIC Staphylococcus aureus (GC 4541) (Staphylococcus sp.): 2 µg/mL (≈ 1.43 µM)
- MIC Staphylococcus aureus (GC 4542) (Staphylococcus sp.): 2 µg/mL (≈ 1.43 µM)
- MIC Staphylococcus aureus (GC 4544) (Staphylococcus sp.): 2 µg/mL (≈ 1.43 µM)
- MIC Staphylococcus aureus (GC 4545) (Staphylococcus sp.): 2 µg/mL (≈ 1.43 µM)
- MIC Staphylococcus aureus-SMITH (GC 4543) (Staphylococcus sp.): 2 µg/mL (≈ 1.43 µM)
- MIC Staphylococcus haemolyticus (GC 4546) (Staphylococcus sp.): 1 µg/mL (≈ 0.715 µM)
- MIC Staphylococcus aureus (ATCC 29213) (Staphylococcus sp.; strain ATCC 29213): 2 µg/mL (≈ 1.43 µM)
- MIC Staphylococcus aureus (GC 1131) (Staphylococcus sp.; strain GC 1131): 2 µg/mL (≈ 1.43 µM)
- MIC Staphylococcus aureus (GC 3051) (Staphylococcus sp.; strain GC 3051): 2 µg/mL (≈ 1.43 µM)
- MIC Staphylococcus aureus (GC 3053) (Staphylococcus sp.; strain GC 3053): 2 µg/mL (≈ 1.43 µM)
- MIC Staphylococcus aureus (GC 4541) (Staphylococcus sp.; strain GC 4541): 2 µg/mL (≈ 1.43 µM)
- MIC Staphylococcus aureus (GC 4542) (Staphylococcus sp.; strain GC 4542): 2 µg/mL (≈ 1.43 µM)
- MIC Staphylococcus aureus-SMITH (GC 4543) (Staphylococcus sp.; strain GC 4543): 2 µg/mL (≈ 1.43 µM)
- MIC Staphylococcus aureus (GC 4544) (Staphylococcus sp.; strain GC 4544): 2 µg/mL (≈ 1.43 µM)
- MIC Staphylococcus aureus (GC 4545) (Staphylococcus sp.; strain GC 4545): 2 µg/mL (≈ 1.43 µM)
- MIC Staphylococcus haemolyticus (GC 4546) (Staphylococcus sp.; strain GC 4546): 1 µg/mL (≈ 0.715 µM)
- MIC Coagulase Negative Staphylococcus (GC 4547) (Staphylococcus sp.; strain GC 4547): 1 µg/mL (≈ 0.715 µM)
- MIC Coagulase Negative Staphylococcus (GC 4548) (Staphylococcus sp.; strain GC 4548): 1 µg/mL (≈ 0.715 µM)
- MIC Coagulase Negative Staphylococcus (GC 4549) (Staphylococcus sp.; strain GC 4549): 0.5 µg/mL (≈ 0.357 µM)
- MIC Coagulase Negative Staphylococcus (GC 4551) (Staphylococcus sp.; strain GC 4551): 2 µg/mL (≈ 1.43 µM)
- MIC Coagulase Negative Staphylococcus (GC 6257) (Staphylococcus sp.; strain GC 6257): 1 µg/mL (≈ 0.715 µM)
- MIC Escherichia coli (ATCC 25922) (Escherichia coli): 64 µg/mL (≈ 45.7 µM)
- MIC Escherichia coli (GC 4559) (Escherichia coli): 64 µg/mL (≈ 45.7 µM)
- MIC Escherichia coli (GC 4560) (Escherichia coli): 1 µg/mL (≈ 0.715 µM)
